Test results from a melting point compilation (Tetko et al.; mined from patent text by program, amines drawn as free bases though some values may be those of a salt).

Compound | melting point [°C]
CCOC(=O)c1ncn2c1CN(C)C(=O)c1cc(C(F)(F)F)ccc1-2 | 179 to 180
COc1ccc(Br)c2c1CC(=O)CO2 | 97 to 100
Cc1nccn1N=Cc1ccccc1 | 122 to 124
COc1cccc(C(N)=O)c1N | 140 to 141
CCn1cc(C(=O)O)c(=O)c2cc(F)c(N3Cc4ccc(C(=O)OC)cc4C3)cc21 | > 300
CC(=O)N1CCN(NC(=O)c2cccs2)CC1 | 212 to 213
COc1ccc(C(=O)CCC#N)cc1 | 94
COc1ccc(C(=O)c2cc(OC)c(OC)c(OC)c2)cc1 | 72 to 73
N#CN=C(Nc1cccnc1)NC1CCCCC1 | 185 to 186
Clc1cnc(SCI)nc1 | 67
O=C(CC(CCCc1ccccc1)C(=O)O)c1ccc(Br)cc1 (stereo unspecified) | 147
CSc1ccc2c(n1)C(c1ccccc1)=[N+]([O-])Cc1nncn1-2 | 190 to 192
CC(=O)c1c(O)c(C(C)=O)c(C(C)=O)c2c1Oc1cc(O)ccc1N2 | 208
COc1ccc(C(=O)Oc2ccc(C(=O)O)cc2F)cc1C12CC3CC(CC(C3)C1)C2 | 258 to 260
COc1ccc(S(=O)(=O)c2ncccn2)cc1 | 72
COC(=O)Nc1nn2cccc2c(=O)[nH]1 | 232
O=C(NCc1ccccn1)c1cc(C(F)(F)F)cc(C(F)(F)F)c1 | 123 to 124
CCOC(=O)C=Cc1ccc(N(CCOC)C(=O)c2ccncc2)cc1 | 98.4 to 102
CC(C)(C)OC(=O)N1CC(=NO)C2(CC2)C1 | 117 to 119
O=c1ncc(Br)cn1CCC(O)Cl (stereo unspecified) | 162 to 164

Compound | melting point [°C]
CCOC(=O)C1=C(C#N)Nc2ccnc(OC(C)C)c2C1c1ccccc1C(F)(F)F (stereo unspecified) | 138 to 140
CCOC(=O)CNC(=O)N(O)C1CC(c2ccc(F)cc2)C1 (stereo unspecified) | 130 to 132
COc1c(Cl)cc(F)cc1C=O | 59 to 62
COc1cc(C2CCCCC2)ccc1C(=O)CCC(=O)O | 130 to 131
C[C@H](CO)Nc1ccc([N+](=O)[O-])cc1F | 128 to 130
COc1ccc(Nc2nc(N)c3[nH]c(C)cc3n2)cc1 | 161 to 163
CC1(C)CCC(C)(C)c2cc(-c3cc(-c4ccc(C(=O)O)cc4)ccc3O)ccc21 | 240 to 241
COc1cc(N)c(Cl)cc1C(=O)NC1CCN(C(C)CC(C(=O)N(C)C)(c2ccccc2)c2ccccc2)CC1O (stereo unspecified) | 132
CC(C)(O)c1ccc(C#N)cc1 | 45 to 47
O=C(O)CCC1(CCC(=O)O)CCC(=O)N1 | 162 to 164
Cc1ccncc1OC1SCC(O)C(O)C1O (stereo unspecified) | 236
Cc1ccc(S(=O)(=O)N2CCC[C@H]2C(=O)N[C@@H](Cc2ccc(NC(=O)C3CCNCC3)cc2)C(=O)O)cc1 | 125 to 128
CCCCOc1ccc(C(=O)NCCCCCCCNC(=O)c2ccc(OCCCC)cc2)cc1 | 151 to 152
CC(C)C(=O)N(O)C(C)c1cc(C(C)(C)C)c(O)c(C(C)(C)C)c1 (stereo unspecified) | 147 to 148
CN(CN1C(=O)c2ccccc2C1=O)c1c(S(=O)C(F)(F)F)c(C#N)nn1-c1c(Cl)cc(C(F)(F)F)cc1Cl (stereo unspecified) | 163
CC(C)(C)c1cc(C(=O)NN)cc(C(C)(C)C)c1O | 187 to 188
O=S(=O)(/C=C/c1ccccc1)CS(=O)(=O)/C=C/c1ccccc1 | 128 to 130
CN1CCN(c2cc3c(cc2F)c(=O)c(C(=O)O)cn3CCF)CC1 | 256 to 258
COc1cc(OC)c2c(C)c(CCN3CCN(c4cccc(C(F)(F)F)c4)CC3)c(=O)oc2c1 | 138 to 139
COCCOCCOCc1c(Br)c(Br)c(Br)c(Br)c1Br | 83

Compound | melting point [°C]
CN(C(=O)Nc1ccc(Oc2ccccc2)cc1)C(Cl)C(Cl)(Cl)Cl (stereo unspecified) | 160 to 162
CCCC(NC(=O)Nc1cccc(C)c1)C(=S)N(CC(=O)OC(C)(C)C)c1ccccc1 (racemic) | 142
C=CCOc1cc2c(cc1CC=C)N(CC=C(C)C)C(=O)CC2 | 86 to 88
COc1ccc(/C=C2/c3cc(OC)c(OC)cc3CCN2C(=O)c2cc(OC)c(OC)c(OC)c2)cc1OC | 195 to 200
O=C([C@H]1CC[C@H](Nc2ncc3ncnc(Nc4ccc(F)c(Cl)c4)c3n2)CC1)N1CCCC1 | 206 to 209
Cc1ccc2sc3cc(C(=O)Cl)ccc3c2c1 | 127 to 128
Cc1ccc2c(c1)SC1(CCOC1=O)C2=O (stereo unspecified) | 122 to 124
COc1nc(C)n2nc(S(=O)(=O)Nc3c(Cl)cccc3Cl)nc2c1Cl | 255 to 256
CCCCc1nc2c(c(C)c(C)n3nnnc23)n1CC(C)(C)NC(=O)OC(C)(C)C | 179 to 181
COc1c(C(=O)O)cc([N+](=O)[O-])c2ccccc12 | 102 to 104
N#CCNC(=O)C1CC1 | 91 to 92
CC(C#N)=NC(C#N)=C(N)C#N | 220 to 221
O=C(O)c1c([N+](=O)[O-])cccc1[N+](=O)[O-] | 200 to 202
COCCOc1ccc(CCCOC(=O)N2CCOCC2)c(Oc2ncc(C(F)(F)F)cc2Cl)c1 | 82.3 to 82.4
CCOC(=O)CCCCCCC(=O)c1ccc2cc(OC)ccc2c1 | 77 to 78
NC(=O)OC[C@H](Cc1ccccc1)NC(=O)OCc1ccccc1 | 121 to 128
CNc1ccc(C#N)c(F)c1 | 110 to 112
COc1ccccc1C(=O)c1noc(CC(N)=O)n1 | 149 to 150

Now from value to compound:

melting point [°C] | Compound
227 | O=C(O)C1(CSc2ccc3oc(-c4ccncc4)cc3c2)CCOCC1
168 | Cc1nn(CC(F)F)c(-c2ccc(F)cc2)c1-c1ccc2c(c1)NC(=O)CO2
130 to 131 | CSc1ccc(-c2nn(Cc3cccnc3)c(=S)cc2-c2ccc(Cl)cc2)cc1
176 to 189 | Cc1cc(NC(=O)NC(=O)c2ccccc2Cl)nc(C)c1-c1ccccc1
78 to 80 | CC(C)C(=O)n1cc(C(=O)C2CSC(c3cccnc3)N2)c2ccccc21 (stereo unspecified)
91 to 94 | O=C1CC(=O)c2cc(OCCCOc3ccccc3)ccc21
87 to 90 | COc1cc(C(=O)c2c(-c3ccc(OCCN4CCCC4)c(COCc4ccccc4)c3)sc3cc(O)ccc23)ccc1CN1CCOCC1
205 to 207 | O=C(Nc1ccc(-n2nc(C(F)(F)F)cc2C(F)(F)F)cc1)c1ccc(Br)cc1
174 to 176 | CCOC(=O)C(NC=O)=C(c1ccc(F)cc1)c1ccc(F)cc1
100 to 102 | CCn1ccc(C2(c3cccc(-c4cncnc4)c3)N=C(N)N(C)C2=O)c1 (stereo unspecified)
170 to 171 | CS(=O)c1ccc(CSc2nnc(-c3ccc4[nH]ncc4c3)o2)cc1C(F)(F)F (stereo unspecified)
222 to 223 | Cc1ccc(-c2nn(-c3ccc(Br)cc3)c(N)c2C(N)=O)cc1
196 to 198 | Cc1ccc(-c2cc(C=O)nn2-c2ccc(S(N)(=O)=O)cc2)cc1
208 to 210 | Cc1cc(-n2cnn(Cc3ccc(S(C)(=O)=O)cc3)c2=O)sc1C(=O)NCc1cccnc1
71 to 73 | CC(C)(C)n1nnc(-c2ccccc2-c2ccc(C=O)cc2)n1
125 | O=C1CNc2ncc(-c3ccc(C(=O)N4CCC[C@H]4CN4CCCC4)cc3)cc2N1Cc1cc(F)ccc1F
116 | Cc1cccc(-c2ccccc2NC(=N)N(C)C)c1
262 to 263 | CCn1cc(C(=O)O)c(=O)c2cc(F)c(N3CCNC(c4cc5cc(Cl)ccc5o4)C3)cc21 (stereo unspecified)
209 | Cn1cc(-c2cc(-c3ccsc3)ccn2)n(-c2ccc(C(C)(C)C#N)cc2)c1=O
97 to 99 | Fc1cc(Cl)ccc1-n1nc2c(c1Cl)CSCC2
97 to 99 | CCOC(=O)C(C)(Sc1cc2ccccc2[nH]1)c1ccccc1 (stereo unspecified)
137 to 140 | COc1ccc(C(=O)Nc2ccccc2)cc1NCc1cccc(F)c1

melting point [°C] | Compound
180 | Cc1cccc(NC(=O)NCC(=O)N(CC(=O)OC(C)(C)C)c2ccccc2Nc2ccccc2)c1
271 | Cc1ccc(N2C(=O)C(O)=C(C(=O)c3ccc(C(C)C)cc3)C2c2ccc(C(C)C)cc2)nn1 (stereo unspecified)
135 to 137 | CC(=O)C(Cc1c(CCN(C)C)[nH]c2ccccc12)(c1ccccc1)c1ccccc1
137 to 139 | Cc1ccc(-c2cccc(/C=C/C(=O)Nc3ccc(CN4CCCCC4CO)cc3)c2)cc1 (stereo unspecified)
104 to 107 | O=[N+]([O-])c1ccc(Sc2ccccc2)c(CO)c1
136 to 138 | COc1ccc(COc2cccnc2NC(=S)Nc2ccc(Cl)cc2)cc1
> 300 | Nc1nc(O)c2cc(CCc3ccc(C(=O)O)cc3)cnc2n1
164 to 166 | Cc1ccc(Cl)c(N2C(=O)C(=O)c3ccccc32)c1Cl
143 to 145 | COc1cc(C(=O)N(CCCC(=O)O)c2cccc3ccccc23)cc(OC)c1OC
188 | CN1CCC(C(=O)Nc2ccc(CN(C)C3CCOCC3)cc2)=Cc2cc(-c3ccc(C(F)(F)F)cc3)ccc21
170 | CCSc1ncn(-c2ccc(O)cc2)n1
184 to 185 | Cc1oc(-c2ccc(O)cc2)nc1CCOc1ccc(N)cc1
145 | CCCCc1cn2ccccc2c1S(=O)(=O)c1ccc(OS(=O)(=O)c2ccc(C)cc2)cc1
83 to 84 | CN(c1ccc(F)c(C(F)(F)F)c1)c1nccc(-c2ccc(F)c(C(F)(F)F)c2)n1
162 to 163 | O=C(O)c1ccc(NCCCc2ccccc2)cc1
126 | CCCCNC(=O)N(C)c1cccc(-c2ccc(C=C(OCC)C(=O)O)cc2)c1
51 to 52 | O=C(CSc1ccccc1)c1ccccc1
195 to 196 | CCCCc1c(Cl)nc(N)nc1-c1cc2ccccc2o1
141 to 143 | Cc1cc(OCc2ccc(-c3ccc(F)c(C(F)(F)F)c3)nc2C)ccc1OC(C)(C)C(=O)O
147 to 148 | O=C(Nc1nnn(CC2CC2)n1)C(c1ccccc1)c1ccccc1
174 to 178 | COC(=O)c1cc2ccccc2c(-c2ccnc(Cl)c2)c1C(=O)OC
